Article PMC12736086, “Synthesis and In Vitro Evaluation of Anticancer Activity of Fluorophenyl Derivatives of 1,3,4-Thiadiazole Against Estrogen-Dependent Breast Cancer” (Molecules, 2025)

Key:
[1] = tested on: MCF-7 (estrogen-dependent) breast cancer cell line; assay: MTT assay, cell viability of MCF-7 cells; type: cell-based; details: Homo sapiens, MCF7, 24 h, 24 h exposure
Description: (§1) To investigate how the tested compounds affect cell viability, experiments were performed using two human breast cancer cell lines—MDA-MB-231 and MCF-7 and human fibroblasts—HMF (normal cells). The MDA-MB-231 cell line represents a highly invasive, triple-negative breast cancer (TNBC) model, lacking estrogen receptor (ER), progesterone receptor (PR), and HER2 expression. In contrast, MCF-7 cells are estrogen receptor-positive (ER+), less invasive, and hormone-responsive, making them a well-established model for luminal-type breast cancer and hormone therapy research. Anastrozole, an aromatase inhibitor, served as a reference drug. The MTT assay applied in this study relies on mitochondrial dehydrogenase enzymes to reduce a water-soluble […] tetrazolium salt (3-(4,5-dimethylthiazol-2-yl)-2,5-diphenyltetrazolium bromide, or MTT) into a dark blue, insoluble formazan compound. The amount of this formazan product formed is directly related to the mitochondrial activity of viable, metabolically active cells in the sample. The efficacy of the compounds was assessed based on IC50 values and analysis of the concentration-dependence of cell survival.
(§2) The experiments were conducted using MDA-MB-231 and MCF-7 human breast cancer cell lines, as well as human fibroblasts (HMF). All cell lines were sourced from the American Type Culture Collection (ATCC; Manassas, VA, USA). Cells were maintained under standard culture conditions (37 °C, 5% CO2). Breast cancer cells were grown in Dulbecco’s Modified Eagle Medium (DMEM) supplemented with 10% fetal bovine serum (FBS), while fibroblasts were cultured in Eagle’s Minimum Essential Medium (EMEM) with the same serum concentration. To prevent microbial contamination, penicillin (100 U/mL) and streptomycin (100 µg/mL) were added to the media. All cell culture reagents were obtained from Sigma Aldrich (St. Louis, MO, USA).
(§3) Cell viability was evaluated using the MTT assay kit (Sigma Aldrich, St. Louis, MO, USA). On day one of the experiment, MCF-7, MDA-MB-231 cells and human fibroblasts were seeded into 96-well culture plates (Nunc, Roskilde, Denmark) at a density of 1 × 10^5 cells/mL (human fibroblast cell line) and 5 × 10^4 cells/mL (MCF-7, MDA-MB-231 cell lines). After 24 h of incubation, the culture medium was removed and replaced with serial dilutions of test compounds or anastrozole (1, 12.5, 25, 50, 100 µM). Control wells received fresh medium only. Cells were incubated for another 24 h under standard conditions. Following this, 15 µL of MTT solution (5 mg/mL) was added to each well and incubated for 3 h. Afterward, a 10% sodium dodecyl sulfate (SDS) solution was added, and the plates were left overnight. On the following day, absorbance was measured at 570 nm using a microplate reader (Epoch, BioTek Instruments, Inc., Winooski, VT, USA) with Gen5 software (version 2.01, BioTek Instruments).
(§4) Data were analyzed using GraphPad software version 5.01 (GraphPad Software, Inc., La Jolla, CA, USA). Results are expressed as means ± standard deviation (±SD). IC50 values were calculated using the IC50 calculator provided by AAT Bioquest.

[2] = tested on: MDA-MB-231 (triple-negative) breast cancer cell line; assay: MTT assay, cell viability of MDA-MB-231 cells; type: cell-based, human; details: 24 h exposure
Description: as §1, §2, §3, §4

[3] = tested on: human fibroblasts (HMF); assay: MTT assay, cell viability of normal HMF fibroblasts; type: cell-based; details: Fibroblast, 24 h, 24 h exposure
Description: as §1, §2, §3, §4

[4] = tested on: MCF-7 cell line; design: method as in PMID 35335177; details: MCF-7, previous study; cited from earlier work

SMILES	IC50 [1]	IC50 ([2]; Homo sapiens, MDA-MB-231, 24 h)	IC50 [2]	IC50 [3]	IC50 [4]
Fc1cccc(-c2nnc(Nc3ccccc3I)s2)c1 [A1, 5-(3-Fluorophenyl)-2-(2-iodophenylamino)-1,3,4-thiadiazole]	66 µM	> 100 µM		51 µM	
Fc1cccc(-c2nnc(Nc3ccccc3Cl)s2)c1 [A3, 2-(2-Chlorophenylamino)-5-(3-fluorophenyl)-1,3,4-thiadiazole]	54.8 µM	> 100 µM		36.9 µM	
CC(C)(C#N)c1cc(Cn2cncn2)cc(C(C)(C)C#N)c1 [Anastrozole, reference compound]	> 100 µM	≥ 100 µM	> 100 µM	> 100 µM	
Fc1cccc(-c2nnc(Nc3ccccc3Br)s2)c1 [A2, 2-(2-Bromophenylamino)-5-(3-fluorophenyl)-1,3,4-thiadiazole]	52.4 µM	> 100 µM		36.5 µM	
COc1cccc(-c2nnc(Nc3ccccc3C(F)(F)F)s2)c1 [2-(2-trifluoromethylphenylamino)-5-(3-methoxyphenyl)-1,3,4-thiadiazole]					49.6 µM

Continued, in another order:

IC50 [1]	IC50 ([2]; Homo sapiens, MDA-MB-231, 24 h)	IC50 [2]	SMILES	IC50 [3]	IC50 [4]
53.9 µM	> 100 µM		Fc1ccc(-c2nnc(Nc3ccccc3I)s2)cc1 [B1, 5-(4-Fluorophenyl)-2-(2-iodophenylamino)-1,3,4-thiadiazole]	45.6 µM	
54.1 µM	> 100 µM		Fc1ccc(-c2nnc(Nc3ccccc3Cl)s2)cc1 [B3, 2-(2-Chlorophenylamino)-5-(4-fluorophenyl)-1,3,4-thiadiazole]	> 100 µM	
82.5 µM	> 100 µM		Fc1ccc(-c2nnc(Nc3ccccc3Br)s2)cc1 [B2, 2-(2-Bromophenylamino)-5-(4-fluorophenyl)-1,3,4-thiadiazole]	41.8 µM	
